Values quoted from earlier work as cited in patent US20030133985A1, “Formulation of an erodible, gastric retentive oral dosage form using in vitro disintegration test data” (priority 2001, published 2003).

Details: at 20° C.

water solubility: 1%
Structure (SMILES): CC1(C)O[C@@H]2[C@@H](CO[C@@]3(COS(N)(=O)=O)OC(C)(C)O[C@@H]23)O1 [topiramate]
